These results are taken from US20250136583A1, “NOVEL SALT FORMS OF ISOCHROMAN-IMIDAZOLE STRUCTURED ALPHA-2A ADRENOCEPTOR AGONIST” (ORION CORPORATION, priority 2022, published 2025).

Counter-ions that a name gives are not always drawn.

Data set [1] is described as follows: Physical stability of the salts (storage at elevated temperature and relative humidity, re-analysis by XRPD). The data set is classed as physicochemical. As to conditions: for Form after stability / Physical stability: solids exposed for 2 or 3 weeks at 40° C. and 70-80% relative humidity; for Form after stability: XRPD; for Physical stability: re-analyzed by XRPD. On the procedure: XRPD measurements were performed with the X-ray powder diffractometer Bruker D8 Advance at room temperature, using a copper filled X-ray tube (40 kV×40 mA) as the X-ray source, CuKα (λ=1.5418 Å), a 0.6 mm divergence slit, 2.5° Soller slits on both the primary and secondary beams and the 1-dimensional LynxEye detector (with aperture angle of 2.91593°). Data collection was done in the range of 3.8-33° 2θ with 0.02° increments, at a scan speed of 0.3°/s.
A stability test was carried out for all crystalline salt forms resulted from the salt screen by exposing the solids for 2 or 3 weeks at 40° C. and 70-80% relative humidity. After exposure, the solids were re-analyzed by XRPD, followed by physical stability assessment.

Data set [2] is described as follows: Chemical stability of the salts (stress at 60° C. and 75% relative humidity, purity by UHPLC). As to conditions: for Purity (%) of 1 day stress samples / Difference between reference and 1 day stressed sample: 1 day at 60° C. and 75% relative humidity; for Purity (%) of 1 day stress samples / Purity (%) of 14 day stress samples / Purity (%) of reference: UHPLC; for Difference between reference and 1 day stressed sample / Difference between reference and 14 day stressed sample: purity difference, in %; for Purity (%) of 14 day stress samples / Difference between reference and 14 day stressed sample: 14 days at 60° C. and 75% relative humidity; for Purity (%) of reference: unstressed sample; for Chemical stability (in words): summary statement. It is filed as physicochemical. On the procedure:
The purity analyses were performed using Agilent UHPLC equipment with PDA/DAD detector at 210 nm wavelength and reverse phase liquid chromatography column Acquity UPLC HSS T3, 100×3.0 mm, 1.8 μm (Waters). The chromatography was performed with gradient run using acetonitrile and phosphate buffer (pH 3.0) as eluents.
The chemical stability of various salts of compound (I) was determined by stressing the salts for 1 and 14 days at 60° C. and 75% relative humidity. The unstressed sample was used as an reference. The purity of the samples were analyzed using UHPLC, and the purity difference between the stressed and reference was calculated.

In a further data set the target is T1, alpha2A receptor (Homo sapiens, UniProt P08913).
T1 sequence (P08913 1-465): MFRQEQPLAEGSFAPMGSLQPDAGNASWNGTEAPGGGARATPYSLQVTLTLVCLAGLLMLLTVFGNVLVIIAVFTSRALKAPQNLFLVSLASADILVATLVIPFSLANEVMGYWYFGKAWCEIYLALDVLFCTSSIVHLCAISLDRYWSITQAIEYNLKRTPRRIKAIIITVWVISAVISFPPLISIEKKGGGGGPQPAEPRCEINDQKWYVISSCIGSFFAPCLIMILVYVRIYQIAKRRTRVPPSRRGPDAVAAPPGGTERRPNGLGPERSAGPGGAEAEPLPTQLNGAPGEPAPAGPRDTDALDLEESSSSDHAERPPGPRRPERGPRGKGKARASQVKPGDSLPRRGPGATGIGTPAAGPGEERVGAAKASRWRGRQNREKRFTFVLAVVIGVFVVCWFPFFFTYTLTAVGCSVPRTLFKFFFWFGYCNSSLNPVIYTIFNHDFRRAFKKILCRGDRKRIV
To be noted: background, WO 2013/150173; cited from earlier work.

In the case of `COc1cccc2c1CCOC2C1=NCCN1` [L-tartaric acid salt Form 1, 2-(5-methoxyisochroman-1-yl)-4,5-dihydro-1H-imidazole], in data set [1], the Form after stability entry is “Form 1” and the Physical stability result is “Stable”. The Physical stability entry in data set [1] (listed as L-tartaric acid (form 1)) is reported as “remained stable”. Also, in data set [2], the “Purity (%) of 1 day stress samples” value was 97.9%; the “Difference between reference and 1 day stressed sample” value is listed as 1.0; the “Purity (%) of 14 day stress samples” value is given as 90.3%; the “Difference between reference and 14 day stressed sample” value stood at 8.7. Moreover, the “Purity (%) of reference” value in data set [2] was 99.0%.
Regarding `COc1cccc2c1CCOC2C1=NCCN1` (stereo not drawn) [Tasipimidine, 2-(5-methoxyisochroman-1-yl)-4,5-dihydro-1H-imidazole], the “Activity on adrenergic alpha2 receptors, especially alpha2A receptor” value at alpha2A receptor was “agonistic activities”.
In the case of `COc1cccc2c1CCOC2C1=NCCN1` (stereo not drawn) [Ethane-1,2-disulfonic acid salt Form 1, 2-(5-methoxyisochroman-1-yl)-4,5-dihydro-1H-imidazole], in data set [1], the Form after stability result is recorded as “Form 1” and the Physical stability result is on record as “Stable”. Also, the Physical stability entry in data set [1] (listed as ethane-1,2-disulfonic acid) is reported as “remained stable”. In data set [2], the “Purity (%) of 1 day stress samples” value is 99.8%; the “Difference between reference and 1 day stressed sample” value turned out to be 0.0; the “Purity (%) of 14 day stress samples” value came to 99.8%; the “Difference between reference and 14 day stressed sample” value is listed as 0.0. Also, in data set [2], the “Chemical stability (in words)” value is given as “good chemical stability” and the “Purity (%) of reference” value stood at 99.8%.
For `COc1cccc2c1CCOC2C1=NCCN1` (stereo not drawn) [Hydrobromic acid salt Form 1, 2-(5-methoxyisochroman-1-yl)-4,5-dihydro-1H-imidazole], in data set [1], the Form after stability entry is given as “Form 1” and the Physical stability entry is given as “Stable”. For the same compound, the Physical stability result in data set [1] (listed as hydrobromic acid) is given as “remained stable”. Besides, in data set [2], the “Purity (%) of 1 day stress samples” value is listed as 98.1%; the “Difference between reference and 1 day stressed sample” value was determined as 0.2; the “Purity (%) of 14 day stress samples” value is given as 98.2%; the “Difference between reference and 14 day stressed sample” value worked out at 0.1. In data set [2], the “Chemical stability (in words)” value is given as “good chemical stability” and the “Purity (%) of reference” value is recorded as 98.3%.
Turning to `COc1cccc2c1CCOC2C1=NCCN1` [L-tartaric acid salt Form 2, 2-(5-methoxyisochroman-1-yl)-4,5-dihydro-1H-imidazole], in data set [1] (40° C., 75% RH for 3 weeks), the “Crystalline form conversion on storage” value is “turned into form 1”. Also, in data set [1], the Form after stability result is “Form 1” and the Physical stability entry is reported as “Unstable”. For the same compound, the Form after stability entry in data set [1] (listed as L-tartaric acid (form 2)) is “completely”. Also, in data set [2], the “Purity (%) of 1 day stress samples” value turned out to be 97.5%; the “Difference between reference and 1 day stressed sample” value is given as 1.0; the “Purity (%) of 14 day stress samples” value was 88.3%; the “Difference between reference and 14 day stressed sample” value is recorded as 10.3. The “Purity (%) of reference” value in data set [2] is recorded as 98.6%.
